For 19 compounds, IC50 results are on record in patent US12358907B2, “Substituted pyrrolidine amides III” (GRÜNENTHAL GMBH, priority 2019, dated 2025).

Read-outs that look alike come from different tables or passages of the source.

The target in this assay is glucocorticoid receptor (GAL4 DBD-GR) (Homo sapiens (Human), UniProt P04150). The experiment in a line: GR cell-based assays (GRE agonist / GRE antagonist), CHO-Gal4/GR luciferase reporter. The source says:
Potential selective glucocorticoid receptor modulators of this intervention can be tested for modulation of the activity of the glucocorticoid receptor using cell-based assays. These assays involve a Chinese hamster ovary (CHO) cell line which contains fragments of the glucocorticoid receptor as well as fusion proteins. The glucocorticoid receptor fragments used are capable of binding the ligand (e.g. beclomethasone) to identify molecules that compete for binding with glucocorticoid receptor ligands. In more detail, the glucocorticoid receptor ligand binding domain is fused to the DNA binding domain (DBD) of the transcription factor GAL4 (GAL4 DBD-GR) and is stably integrated into a CHO cell line containing a GAL4-UAS-Luciferase reporter construct. […] After cell lysis the luminescence that is produced by luciferase after addition of the substrate is detected and EC50 or IC50 values can be calcuated. Engagement of molecules which induce gene expression via glucocortocoid receptor binding to the DNA leads to expression of the luciferase gene under the control of the fusion protein GAL4 DBD-GR and therefore to a dose-dependent increase of the luminescence signal. Binding of molecules which repress beclomethasone-induced gene expression of the luciferase gene under the control of the fusion protein GAL4 DBD-GR leads to a dose-dependent reduction of the luminescence signal.
The reporter cell line CHO-Gal4/GR consisted of a chinese hamster ovary (CHO) cell line (Leibniz Institute DSMZ—German Collection of Microorganisms and Cell Cultures GmbH: ACC-110) containing a firefly luciferase gene under the control of the GR ligand binding domain fused to the DNA binding domain (DBD) of GAL4 (GAL4 DBD-GR) stably integrated into CHO cells. This cell line was established by stable transfection of CHO cells with a GAL4-UAS-Luciferase reporter construct. In a subsequent step the ligand binding domain of the GR cloned into pIRES2-EGFP-GAL4 containing the DNA binding domain of GAL4 from pFA-AT2 was transfected. This fusion construct activated firefly luciferase expression under the control of a multimerized GAL4 upstream activation sequence (UAS). The signal of the emitted luminescence was recorded by the FLIPR^TETRA. This allowed for specific detection of ligand-induced activation of the GR and therefore for the identification of compounds with agonistic properties. The GAL4/UAS reporter was premixed with a vector that constitutively expressed Renilla luciferase, which served as an internal positive control for transfection efficiency.
The complete culture medium for the assay was: • DMEM F-12 (1:1) MIXTURE (LONZA cat. No: BE04-687F/U1) 500 mL • 5 mL of 100 mM Sodium Pyruvate (LONZA cat. No: BE12-115E) • 25 mL of 7.5% Sodium Bicarbonate (LONZA cat. No BE17-613E) • 6.5 mL of 1 M Hepes (LONZA cat. No: BE17-737E) • 5 mL of 100× Penicillin/Streptomycin (LONZA cat. No DE17-602E) • 50 mL of Fetal Bovine Serum (Euroclone cat. No ECS 0180L) • 0.25 mL of 10 mg/mL Puromycin (InvivoGen cat.: ant-pr-1) • 0.5 mL of 100 mg/mL Zeocin (InvivoGen cat.: ant-zn-1)
Cryo-preserved CHO-Gal4/GR cells were suspended in complete medium and 5000 cells/25 μl/well were seeded into the wells of 384-well polystyrene assay plates (Thermo Scientific, cat. #4332) and cultured at 37° C., 5% CO2 and 95% humidity. After 24 hours growth medium was carefully removed and replaced by 30 μl Opti-MEM (GIBCO, cat. #31985062) as assay buffer. To test the compounds an 8-point half-log compound dilution curve was generated in 100% DMSO starting from a 2 mM stock and compounds were then diluted 1:50 in Opti-MEM. 10 μl of compounds were then added to the wells containing 30 μl Opti-MEM resulting in a final assay concentration range from 10 μM to 0.003 μM in 0.5% DMSO. Compounds were tested at 8 concentrations in quadruplicate data points. […] Finally, cells were lysed with 20 μl of Triton/Luciferin solution and the signal of the emitted luminescence was recorded at the FLIPR^TETRA for 2 minutes. […]

The mark [1] stands for this setting: CHO-Gal4/GR reporter cells, agonist mode (EC50) or antagonist mode against beclometasone (IC50), 6 hour incubation.

Chain of glucocorticoid receptor (GAL4 DBD-GR) (P04150 524-758): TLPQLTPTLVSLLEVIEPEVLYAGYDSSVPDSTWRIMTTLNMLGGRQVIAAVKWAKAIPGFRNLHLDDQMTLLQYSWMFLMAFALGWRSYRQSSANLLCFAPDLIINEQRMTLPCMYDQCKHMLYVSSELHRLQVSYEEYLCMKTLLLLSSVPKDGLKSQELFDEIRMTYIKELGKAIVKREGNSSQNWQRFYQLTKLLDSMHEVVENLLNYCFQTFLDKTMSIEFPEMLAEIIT

With `C[C@@H]1C(=O)N(c2ccc3c(cnn3-c3ccc(F)cc3)c2)[C@H](c2ccc(Cl)s2)[C@H]1NS(C)(=O)=O` [Example 114, N-[(2S,3S,4S)-2-(5-Chloro-thiophen-2-yl)-1-[1-(4-fluorophenyl)-1H-indazol-5-yl]-4-methyl-5-oxo-pyrrolidin-3-yl]-methanesulfonic acid amide], the IC50 (read-out: IC50 or EC50) is 100 to 1000 nM.
For `Cc1cccc([C@@H]2[C@@H](NC(=O)C3CC3)[C@@H](C)C(=O)N2c2ccc3c(cnn3-c3ccc(F)cc3)c2)c1` (racemic) [Example 70, N-[rac-(2R,3S,4R)-1-[1-(4-Fluorophenyl)-1H-indazol-5-yl]-4-methyl-2-m-tolyl-5-oxo-pyrrolidin-3-yl]-cyclopropanecarboxylic acid amide], the IC50 (read-out: IC50 or EC50) was less than 100 nM.
On the same count and under the same terms, under `C[C@@H]1C(=O)N(c2ccc3c(cnn3-c3ccc(F)cc3)c2)[C@H](c2ccc(Cl)s2)[C@H]1NC(=O)C1CC1` (racemic) [Example 108, N-[rac-(2S,3S,4S)-2-(5-Chloro-thiophen-2-yl)-1-[1-(4-fluorophenyl)-1H-indazol-5-yl]-4-methyl-5-oxo-pyrrolidin-3-yl]-cyclopropanecarboxylic acid amide] stands less than 100 nM; under `COc1ccc([C@@H]2[C@@H](NC(=O)C3CC3)[C@H](C)C(=O)N2c2ccc3c(cnn3-c3ccc(F)cc3)c2)cc1` (racemic) [Example 133, N-[rac-(2R,3S,4S)-1-[1-(4-Fluorophenyl)-1H-indazol-5-yl]-2-(4-methoxyphenyl)-4-methyl-5-oxo-pyrrolidin-3-yl]-cyclopropanecarboxylic acid amide], 100 to 1000 nM.
Same read-out and setting: under `O=C(N[C@H]1[C@H](CC(F)F)C(=O)N(c2ccc3c(cnn3-c3ccc(F)cc3)c2)[C@@H]1c1ccccc1)C1CC1` [Example 131, N-((2R,3S,4S)-4-(2,2-difluoroethyl)-1-(1-(4-fluorophenyl)-1H-indazol-5-yl)-5-oxo-2-phenylpyrrolidin-3-yl)cyclopropanecarboxamide] stands 100 to 1000 nM; under `C[C@@H]1C(=O)N(c2ccc3c(cnn3-c3ccc(F)cc3)c2)[C@H](c2ccccc2)[C@H]1NC(=O)C1CC1` (racemic) [Example 46, N-[rac-(2R,3S,4S)-1-[1-(4-Fluorophenyl)-1H-indazol-5-yl]-4-methyl-5-oxo-2-phenyl-pyrrolidin-3-yl]-cyclopropanecarboxylic acid amide], less than 100 nM.
Still for that read-out and setting: for `COc1ccc([C@@H]2[C@@H](NC(=O)c3scnc3C)[C@H](C)C(=O)N2c2ccc3c(cnn3-c3ccc(F)cc3)c2)cc1` (racemic) [Example 82, N-[rac-(2R,3S,4S)-1-[1-(4-Fluorophenyl)-1H-indazol-5-yl]-2-(4-methoxyphenyl)-4-methyl-5-oxo-pyrrolidin-3-yl]-4-methyl-thiazole-5-carboxylic acid amide] the value was 100 to 1000 nM.
`Cc1ncoc1C(=O)N[C@@H]1[C@@H](c2ccccc2)N(c2ccc3c(cnn3-c3ccc(F)cc3)c2)C(=O)C1(C)C` [Example 45a, N-((2R,3S)-1-(1-(4-fluorophenyl)-1H-indazol-5-yl)-4,4-dimethyl-5-oxo-2-phenylpyrrolidin-3-yl)-4-methyloxazole-5-carboxamide] registered an IC50 under setting [1] of less than 100 nM.
For the compound `C[C@H]1C(=O)N(c2ccc3c(cnn3-c3ccc(F)cc3)c2)[C@H](c2ccccc2Cl)[C@H]1NC(=O)c1cccnc1` (racemic) [Example 87, N-[rac-(2R,3S,4R)-2-(2-Chlorophenyl)-1-[1-(4-fluorophenyl)-1H-indazol-5-yl]-4-methyl-5-oxo-pyrrolidin-3-yl]-pyridine-3-carboxylic acid amide], the IC50 (read-out: IC50 or EC50) was less than 100 nM.
For the compound `O=C(N[C@@H]1[C@@H](c2ccccc2)N(c2cnc3c(cnn3-c3ccc(F)cc3)c2)C(=O)C12CC2)C1CC1` (racemic) [Example 31, N-[rac-((6R,7S)-5-(1-(4-fluorophenyl)-1H-pyrazolo[3,4-b]pyridin-5-yl)-4-oxo-6-phenyl-5-azaspiro[2.4]heptan-7-yl)]cyclopropanecarboxamide], for the setting “read-out: IC50 or EC50”, the IC50 fell in the range of 100 to 1000 nM.
As for `Cc1cccc([C@@H]2[C@@H](NC(=O)c3cccnc3)[C@@H](C)C(=O)N2c2ccc3c(cnn3-c3ccc(F)cc3)c2)c1` (racemic) [Example 73, N-[rac-(2R,3S,4R)-1-[1-(4-Fluorophenyl)-1H-indazol-5-yl]-4-methyl-2-m-tolyl-5-oxo-pyrrolidin-3-yl]-pyridine-3-carboxylic acid amide], where the note is “read-out: IC50 or EC50”, the IC50 was less than 100 nM.
Same read-out and setting: under `C[C@@H]1C(=O)N(c2ccc3c(cnn3-c3ccc(F)cc3)c2)[C@H](c2ccc(Cl)s2)[C@H]1NC(=O)C(C)(F)F` (racemic) [Example 123, N-[rac-(2S,3S,4S)-2-(5-Chloro-thiophen-2-yl)-1-[1-(4-fluorophenyl)-1H-indazol-5-yl]-4-methyl-5-oxo-pyrrolidin-3-yl]-2,2-difluoro-propionamide] stands less than 100 nM; under `C[C@@H]1C(=O)N(c2ccc3c(cnn3-c3ccc(F)cc3)c2)[C@H](c2ccn(C)n2)[C@H]1NC(=O)C(C)(F)F` (racemic) [Example 120, 2,2-Difluoro-N-[rac-(2S,3S,4S)-1-[1-(4-fluorophenyl)-1H-indazol-5-yl]-4-methyl-2-(1-methyl-1H-pyrazol-3-yl)-5-oxo-pyrrolidin-3-yl]-propionamide], 1000 to 15000 nM.
Turning to `COc1ccc([C@@H]2[C@@H](NC(=O)c3ccn(C)n3)[C@H](C)C(=O)N2c2ccc3c(cnn3-c3ccc(F)cc3)c2)cc1` (racemic) [Example 83, N-[rac-(2R,3S,4S)-1-[1-(4-Fluorophenyl)-1H-indazol-5-yl]-2-(4-methoxyphenyl)-4-methyl-5-oxo-pyrrolidin-3-yl]-1-methyl-1H-pyrazole-3-carboxylic acid amide], the IC50 (read-out: IC50 or EC50) was less than 100 nM.
On the same count and under the same terms, under `C[C@@]1(c2ccccc2)[C@@H](NC(=O)C2CC2)CC(=O)N1c1ccc2c(cnn2-c2ccc(F)cc2)c1` (racemic) [Example 101, N-[rac-(2R,3S)-1-[1-(4-Fluorophenyl)-1H-indazol-5-yl]-2-methyl-5-oxo-2-phenyl-pyrrolidin-3-yl]-cyclopropanecarboxylic acid amide] stands 100 to 1000 nM; under `C[C@@H]1C(=O)N(c2ccc3c(cnn3-c3ccc(F)cc3)c2)[C@H](c2ccccc2)[C@H]1NC(=O)c1ccn(C)n1` (racemic) [Example 64, N-[rac-(2R,3S,4S)-1-[1-(4-Fluorophenyl)-1H-indazol-5-yl]-4-methyl-5-oxo-2-phenyl-pyrrolidin-3-yl]-1-methyl-1H-pyrazole-3-carboxylic acid amide], less than 100 nM; under `C[C@@]1(CC(F)F)C(=O)N(c2ccc3c(cnn3-c3ccc(F)cc3)c2)[C@H](c2ccccc2)[C@H]1NC(=O)C1CC1` (racemic) [Example 148, N-(rac-(2R,3S,4S)-4-(2,2-difluoroethyl)-1-(1-(4-fluorophenyl)-1H-indazol-5-yl)-4-methyl-5-oxo-2-phenylpyrrolidin-3-yl)cyclopropanecarboxamide], less than 100 nM.
Same read-out and setting: under `O=C(N[C@H]1C(CCc2ccccc2)C(=O)N(c2ccc3c(cnn3-c3ccc(F)cc3)c2)[C@@H]1c1ccccc1)C1CC1` (single isomer, unassigned) [Example 127] stands 100 to 1000 nM.
Under setting [1], `Cc1ncc(C(=O)N[C@@H]2[C@@H](c3ccccc3)N(c3ccc4c(cnn4-c4ccc(F)cc4)c3)C(=O)C2(C)C)o1` [Example 44a, N-((2R,3S)-1-(1-(4-fluorophenyl)-1H-indazol-5-yl)-4,4-dimethyl-5-oxo-2-phenylpyrrolidin-3-yl)-2-methyloxazole-5-carboxamide] displayed an IC50 of less than 100 nM.

By IC50 is commonly meant the concentration that inhibits the measured activity by half.
